Laboratory results from PubChem BioAssay AID493128 (Sanford-Burnham Center for Chemical Genomics, 2011).
Active and inactive are the calls of the source. The rule behind the calls is not given here.

Target: intestinal alkaline phosphatase Alpi (Mus musculus)
Assay: activation of murine Alpi phosphatase – biochemical, human IAP activator project, SAR follow-up (AID 493128)
Details: purified mouse IAP enzyme activity

With CC(=O)Nc1ccc(/C=N/NC(=O)C(=O)N/N=C/c2ccc(NC(C)=O)cc2)cc1 the EC50 was > 100 µM (inactive).

COc1cccc(C=NNC(=O)C(=O)NN=Cc2cccc(OC)c2O)c1O was tested, and the EC50 was > 100 µM (inactive).

CC1C(=O)NN=C1C(=O)NN=Cc1ccc(O)cc1O (stereo unspecified) was tested, and the EC50 was > 100 µM (inactive).

For COc1ccc(OC)c(/C=N/NC(=O)C(=O)N/N=C/c2cc(OC)ccc2OC)c1, the EC50 was > 100 µM (inactive).

For Cc1ccc(-c2cc(C(=O)NN=Cc3ccccc3O)n[nH]2)o1, the EC50 was > 100 µM (inactive).

With O=C(CCN1C(=O)/C(=C/c2ccccc2Cl)SC1=S)NNC(=O)c1ccccc1O the EC50 was > 100 µM (inactive).

With COc1cc(/C=N/NC(=O)C(=O)N/N=C/c2cc(OC)c(OC)c(OC)c2)cc(OC)c1OC the EC50 was > 100 µM (inactive).

In the case of N#CCOc1ccccc1/C=N/NC(=O)C(=O)N/N=C/c1ccccc1OCC#N, the EC50 is reported as > 100 µM (inactive).

For CC(C)Oc1ccccc1/C=N/NC(=O)C(=O)N/N=C/c1ccccc1OC(C)C, the EC50 was > 100 µM (inactive).

For C/C(=N\NC(=O)c1[nH]nc2c1CCc1ccccc1-2)c1ccccc1O, the EC50 was > 100 µM (inactive).

In the case of COc1ccc(/C=N/NC(=O)C(=O)N/N=C/c2ccc(OC)c(OC)c2)cc1OC, the EC50 is reported as > 100 µM (inactive).

O=C(N/N=C/c1cc(Br)ccc1O)C(=O)N/N=C/c1cc(Br)ccc1O was tested, and the EC50 was > 100 µM (inactive).

For CCN(CC)c1ccc(/C=N/NC(=O)C(=O)N/N=C/c2ccc(N(CC)CC)cc2O)c(O)c1, the EC50 was > 100 µM (inactive).

O=C(N/N=C/c1ccccc1C(=O)O)C(=O)N/N=C/c1ccccc1C(=O)O was tested, and the EC50 was > 100 µM (inactive).

With Cc1cc(C(=O)NN=Cc2cc(Cl)cc([N+](=O)[O-])c2O)n[nH]1 the EC50 was > 100 µM (inactive).

For CC(C)C(=O)NC(=S)Nc1ccccc1C(=O)Nc1ccccc1, the EC50 was > 100 µM (inactive).

OC(c1nc2ccc(F)cc2[nH]1)C(O)c1nc2ccc(F)cc2[nH]1 (stereo unspecified) was tested, and the EC50 was > 100 µM (inactive).

For O=C(N/N=C/c1cc(Br)ccc1O)c1cc(C2CC2)[nH]n1, the EC50 was > 100 µM (inactive).

For O=C(N/N=C\c1cccc(O)c1)C(=O)N/N=C/c1cccc(O)c1, the EC50 was > 100 µM (inactive).

In the case of C/C(=N\NC(=O)c1cc(C)[nH]n1)c1ccc2ccccc2c1O, the EC50 is reported as > 100 µM (inactive).

With CC(=NNC(=O)C(=O)NN=C(C)c1cccc(O)c1)c1cccc(O)c1 the EC50 was > 100 µM (inactive).

For Cc1cc(C(=O)NN=Cc2cccc([N+](=O)[O-])c2O)n[nH]1, the EC50 was > 100 µM (inactive).

In the case of COc1cccc(C=NNC(=O)C2=NNC(=O)C2C)c1O (stereo unspecified), the EC50 is reported as > 100 µM (inactive).

For Cc1cc(C(=O)N/N=C\c2cc(C(C)(C)C)ccc2O)n[nH]1, the EC50 was > 100 µM (inactive).

For O=C(N/N=C/c1ccccc1O)c1n[nH]c2c1CCC2, the EC50 was > 100 µM (inactive).

With CCOc1cc(/C=N/NC(=O)C(=O)N/N=C/c2ccc(O)c(OCC)c2)ccc1O the EC50 was > 100 µM (inactive).

For COc1cc(/C=N\NC(=O)C(=O)N/N=C/c2cc(OC)c(O)c(OC)c2)cc(OC)c1O, the EC50 was > 100 µM (inactive).

O=C(N/N=C/c1c(O)ccc2ccccc12)C(=O)N/N=C/c1c(O)ccc2ccccc12 was tested, and the EC50 was > 100 µM (inactive).

With COc1ccc(-c2cc(C(=O)NN=Cc3c(O)ccc4ccccc34)[nH]n2)cc1 the EC50 was > 100 µM (inactive).

In the case of Cc1cc(C(=O)N/N=C/c2cc(Br)ccc2O)n[nH]1, the EC50 is reported as > 100 µM (inactive).

For COc1cc(OC)cc(C(=O)NNC(=O)c2nn(C)c(=O)c3ccccc23)c1, the EC50 was > 100 µM (inactive).

With COc1cc(/C=N/NC(=O)C(=O)N/N=C/c2ccc(O)c(OC)c2)ccc1O the EC50 was > 100 µM (inactive).

In the case of O=C(NC(=S)NNC(=O)c1ccccc1O)c1ccc(F)cc1, the EC50 is reported as > 100 µM (inactive).

O=C(NN=Cc1ccc(O)cc1O)C(=O)NN=Cc1ccc(O)cc1O was tested, and the EC50 was > 100 µM (inactive).

With Cc1ccc(O)c(C=NNC(=O)c2[nH]ncc2Br)c1 the EC50 was > 100 µM (inactive).

For COC(=O)c1ccc(/C=N/NC(=O)C(=O)N/N=C/c2ccc(C(=O)OC)cc2)cc1, the EC50 was > 100 µM (inactive).

For CCCCOc1ccc(/C=N/NC(=O)C(=O)N/N=C/c2ccc(OCCCC)cc2)cc1, the EC50 was > 100 µM (inactive).

With COc1cccc(C=NNC(=O)c2[nH]nc3c2CCc2ccccc2-3)c1O the EC50 was > 100 µM (inactive).

COc1cccc(C=NNC(=O)c2cc(-c3cccn3C)n[nH]2)c1O was tested, and the EC50 was > 100 µM (inactive).

O=C(N/N=C/c1ccc2c(c1)OCO2)C(=O)N/N=C/c1ccc2c(c1)OCO2 was tested, and the EC50 was > 100 µM (inactive).

For COc1cc(OC)c(OC)cc1/C=N/NC(=O)C(=O)N/N=C/c1cc(OC)c(OC)cc1OC, the EC50 was > 100 µM (inactive).

In the case of Cn1cccc1-c1cc(C(=O)NN=Cc2cc(Br)ccc2O)[nH]n1, the EC50 is reported as > 100 µM (inactive).

O=C(N/N=C/c1c(O)ccc2ccccc12)c1cc(-c2cccs2)[nH]n1 was tested, and the EC50 was > 100 µM (inactive).

In the case of O=C(N/N=C/c1ccc(O)cc1)C(=O)N/N=C/c1ccc(O)cc1, the EC50 is reported as > 100 µM (inactive).

For COc1cccc(C=NNC(=O)C(=O)NN=Cc2cccc(OC)c2OC)c1OC, the EC50 was > 100 µM (inactive).

CC(=O)Nc1cccc(C(=O)NNC(=O)c2n[nH]c(=O)c3ccccc23)c1 was tested, and the EC50 was > 100 µM (inactive).

O=C(NN=Cc1ccccc1)C(=O)NN=Cc1ccccc1 was tested, and the EC50 was > 100 µM (inactive).

For CCOc1cccc(C=NNC(=O)c2cc(-c3cccn3C)n[nH]2)c1O, the EC50 was > 100 µM (inactive).

In the case of O=C(N/N=C\c1ccc2c(c1)OCO2)C(=O)N/N=C/c1ccc2c(c1)OCO2, the EC50 is reported as > 100 µM (inactive).

CN(C)c1ccc(/C=N/NC(=O)C(=O)N/N=C/c2ccc(N(C)C)cc2)cc1 was tested, and the EC50 was > 100 µM (inactive).

For O=C(NN=Cc1c(O)ccc2ccccc12)c1[nH]ncc1Br, the EC50 was > 100 µM (inactive).

For O=C(N/N=C/c1ccccc1O)c1cc(C2CC2)[nH]n1, the EC50 was > 100 µM (inactive).

For O=C(NNC(=S)NC(=O)c1ccccc1[N+](=O)[O-])c1ccccc1O, the EC50 was > 100 µM (inactive).

For COc1ccc(-c2csc(Nc3cccc4ccccc34)n2)cc1F, the EC50 was > 100 µM (inactive).

Work on O=C1Nc2ccc(Br)cc2C12NNc1ccccc1O2 (stereo unspecified) yielded an IC50 (inhibition of IAP activity) of 0.382 µM.

In the case of CCOc1cccc(C=NNC(=O)c2cc(C3CC3)[nH]n2)c1O, the EC50 is reported as > 100 µM (inactive).
